Molecular target: GTPase NRas [G12D,C118S] (Homo sapiens, UniProt P01111, C118S/G12D)
Experiment: NRas G12D Surface Plasmon Resonance (SPR) Binding Assay
Experimental: The assay was run at 25° C. with a data collection rate of 10 Hz. All samples were flowed over both a reference surface and an active surface. Samples were injected for 30 s, with a dissociation time length of 120 s, at a flow rate of 100 μL/min and followed by an extra wash with 50% DMSO and a carry-over control injected at 40 μL/min for 30 s. Ten startup cycles were performed at the beginning of the assay. Solvent correction samples were injected once in the middle of the assay, and once at the end. A control sample of 10 μM control compound was injected between two negative control injections (1.0× running buffer containing 3% DMSO) every thirty cycles, to periodically assess NRAS surface stability. Assay was allowed to run for approximately 20-24 hours due to loss of activity of the protein surface over time. Data was analyzed using the Biacore™ S200 Evaluation Software, and all data was fit using a 1:1 kinetic binding model or steady-state fitting, as appropriate.

GTPase NRas [G12D,C118S], sequence (P01111 whole entry G12D/C118S, looked up): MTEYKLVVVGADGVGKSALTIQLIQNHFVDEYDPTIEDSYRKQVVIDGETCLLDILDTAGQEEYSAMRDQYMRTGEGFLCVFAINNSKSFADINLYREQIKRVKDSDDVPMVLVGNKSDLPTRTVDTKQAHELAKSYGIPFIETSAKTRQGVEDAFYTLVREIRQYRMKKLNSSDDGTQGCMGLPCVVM

Kd: 119 nM
Structure (SMILES): C#Cc1c(F)ccc2cc(O)cc(-c3nc(C(C)=O)c4c([C@H]5[C@@H]6CNC[C@@H]65)nn(C5CC5)c4c3F)c12 [US20260022118, Example 84]
